Reference: patent publication US9862985B2, “Identification and susceptibility of microorganisms by species and strain” (SPECIFIC TECHNOLOGIES LLC, priority 2012, dated 2018)

Legend:
[1] = tested on: K. pneumoniae IS-007; assay: Colorimetric sensor array antibiotic susceptibility test on solid growth media; type: cell-based; conditions: vs control without antibiotic
Excerpt: (§1) To detect a microorganism by species and strain, a sample including the microorganism is placed in a container including culture medium and a colorimetric array, and the temporal response of the sensors to the metabolic products of the microorganism is monitored. Susceptibility can be assessed by inoculating a growth medium including a substance (e.g., an antibiotic) with a microorganism and monitoring the temporal response of the sensors while also monitoring the response of a control (e.g., no antibiotic).
FIG. 8 depicts container 800 configured for use to assess susceptibility of microorganisms. Container 800 includes base 802 and lid 804, with plates 806 positioned in base 802 opposite colorimetric sensor arrays 808 on lid 804. Microorganisms may be placed in contact with growth medium (e.g., a solid growth medium) in plates 806. A substance (e.g., a drug such as an antibiotic) may be added to the growth medium. In one example, rows and columns of plates 802 in container 800 may be used for different microorganisms, different substances (e.g., drugs effective to kill the microorganisms), or different concentrations of substances. After samples are loaded on plates 802, lid 804 is positioned over base 802, such that each colorimetric sensor array 808 is proximate a plate 806. Susceptibility is assessed via temporal response of the sensors in colorimetric sensor arrays. […]

[2] = tested on: K. pneumoniae IS-007; conditions: cited from earlier work
[3] = tested on: K. pneumoniae IS-020; conditions: cited from earlier work
[4] = tested on: K. pneumoniae IS-133; conditions: cited from earlier work
[5] = tested on: S. aureus IS-120; assay: Colorimetric sensor array antibiotic susceptibility test on solid growth media; type: cell-based
Excerpt: as §1
(§2) FIG. 8 depicts container 800 configured for use to assess susceptibility of microorganisms. Container 800 includes base 802 and lid 804, with plates 806 positioned in base 802 opposite colorimetric sensor arrays 808 on lid 804. Microorganisms may be placed in contact with growth medium (e.g., a solid growth medium) in plates 806. A substance (e.g., a drug such as an antibiotic) may be added to the growth medium. In one example, rows and columns of plates 802 in container 800 may be used for different microorganisms, different substances (e.g., drugs effective to kill the microorganisms), or different concentrations of substances. After samples are loaded on plates 802, lid 804 is positioned over base 802, such that each colorimetric sensor array 808 is proximate a plate 806. Susceptibility is assessed via temporal response of the sensors in colorimetric sensor arrays. Container 800 can be positioned in an apparatus (e.g., apparatus 700) for automated assessment of susceptibility.
(§3) Susceptibility is indicated by a lack of metabolic products compared to controls (no antibiotic).
(§4) In another susceptibility test, three strains of S. aureus were inoculated onto the solid growth media. […] S. aureus IS-124 was susceptible to both antibiotics in agreement with known susceptibility information that this strain is susceptible to Oxacillin and Vancomycin.

[6] = tested on: S. aureus IS-123; assay: as above; type: cell-based
Excerpt: as §1, §2, §3, §4

[7] = tested on: S. aureus IS-120; conditions: cited from earlier work
[8] = tested on: S. aureus IS-123; conditions: cited from earlier work
[9] = tested on: S. aureus IS-124; conditions: concentration not given; cited from earlier work
[10] = antibiotic at 2 ug/ml in solid growth media
[11] = antibiotic at 1-2 ug/ml in solid growth media

Structure (SMILES): CO/N=C(\C(=O)N[C@@H]1C(=O)N2C(C(=O)[O-])=C(C[N+]3(C)CCCC3)CS[C@H]12)c1csc(N)n1 [Cefepime]
- susceptibility or resistance of the strain to the antibiotic ([1]; antibiotic at 8 ug/ml in solid growth media): resistance
- concentration at which the strain is susceptible (known susceptibility information) [2]: < 0.25 µg/mL
- concentration below which the strain is resistant (known susceptibility information) [2]: below 64 ug/ml
- concentration at which the strain is susceptible (known susceptibility information) [3]: < 1 µg/mL
- concentration below which the strain is resistant (known) [4]: below 64 ug/ml

Structure (SMILES): C[C@@H](O)[C@H]1C(=O)N2C(C(=O)O)=C(S[C@@H]3CN[C@H](C(=O)N(C)C)C3)[C@H](C)[C@H]12 [Meropenem]
- susceptibility or resistance of the strain to the antibiotic ([1]; antibiotic at 1 ug/ml in solid growth media): susceptibility
- concentration at which the strain is susceptible (known susceptibility information) [3]: < 0.25 µg/mL
- concentration below which the strain is resistant (known) [4]: below 16 ug/ml

Structure (SMILES): Cc1onc(-c2ccccc2)c1C(=O)N[C@@H]1C(=O)N2[C@@H]1SC(C)(C)[C@@H]2C(=O)O [Oxacillin]
- susceptibility or resistance of the strain to the antibiotic [5, 10]: resistance
- susceptibility or resistance of the strain to the antibiotic [6, 10]: resistance
- concentration below which the strain is resistant (known susceptibility information) [7]: below 4 ug/ml
- concentration below which the strain is resistant (known susceptibility information) [8]: below 4 ug/ml
- known susceptibility of the strain to the antibiotic [9]: susceptible

Structure (SMILES): CN[C@H](CC(C)C)C(=O)N[C@H]1C(=O)N[C@@H](CC(N)=O)C(=O)N[C@H]2C(=O)N[C@H]3C(=O)N[C@H](C(=O)N[C@H](C(=O)O)c4cc(O)cc(O)c4-c4cc3ccc4O)[C@H](O)c3ccc(c(Cl)c3)Oc3cc2cc(c3O[C@@H]2O[C@H](CO)[C@@H](O)[C@H](O)[C@H]2O[C@H]2C[C@](C)(N)[C@H](O)[C@H](C)O2)Oc2ccc(cc2Cl)[C@H]1O [Vancomycin]
- susceptibility or resistance of the strain to the antibiotic [5, 11]: susceptibility
- susceptibility or resistance of the strain to the antibiotic [6, 11]: susceptibility
- known susceptibility of the strain to the antibiotic ([7]; concentration not given): susceptible
- known susceptibility of the strain to the antibiotic ([8]; concentration not given): susceptible
- known susceptibility of the strain to the antibiotic [9]: susceptible
